{
  "source": "paper PMC9212912",
  "about": "(Structure (London, England : 1993), 2022)",
  "key": {"Calu-3 cells": {"test_system": "Calu-3 cells", "settings": "0.01 µM"}, "human HAT complex SAGA": {"test_system": "human HAT complex SAGA", "experiment": "In vitro acetyltransferase assay", "type": "biochemical"}, "[1]": {"test_system": "human HAT complex NuA4/TIP60", "experiment": "In vitro acetyltransferase assay", "type": "biochemical"}, "[2]": {"test_system": "native human MYST-family HAT complexes purified via MEAF6 (MYST)", "experiment": "In vitro acetyltransferase assay, 3H-acetyl incorporation", "type": "biochemical", "settings": "0.5 μg peptide, 3H Ac-CoA, 30 minutes at 30 °C, liquid scintillation"}, "[3]": {"test_system": "native human MYST-family HAT complex purified via BRPF2 (HBO1)", "experiment": "In vitro acetyltransferase assay, 3H-acetyl incorporation", "type": "biochemical", "settings": "0.5 μg peptide, 3H Ac-CoA, 30 minutes at 30 °C, liquid scintillation"}, "BRD4 ET domain": {"target": "BRD4 ET domain (Homo sapiens, UniProt O60885)", "type": "binding", "settings": "20 mM Tris pH 7.0, 100 mM NaCl, 3 mM DTT, 10% D2O"}},
  "data": [
    {"compound": "Cc1sc2c(c1C)C(c1ccc(Cl)cc1)=N[C@@H](CC(=O)Nc1ccc(O)cc1)c1nnc(C)n1-2", "note": "[OTX015]", "values": [
      {"measurement": "Calu-3 cell viability", "setting": "Calu-3 cells", "value": 98, "unit": "%"}
    ]},
    {"compound": "SARS-CoV-2 E^48−72: peptide, aa 48–72 of SARS-CoV-2 E, acetyltransferase substrate (NVSLVKPSFYVYSRVKNLNSSRVPD; UniProt P0DTC4 48-72, looked up, fragment)", "values": [
      {"measurement": "Acetylation of the peptide by SAGA", "setting": "human HAT complex SAGA", "value": "undetectable"},
      {"measurement": "Acetylation of the peptide by NuA4/TIP60", "setting": "[1]", "value": "undetectable"},
      {"measurement": "Acetylation of the peptide by MYST (MEAF6) complexes", "setting": "[2]", "value": "able to some extent acetylate"},
      {"measurement": "Acetylation of the peptide by HBO1 (BRPF2) complex", "setting": "[3]", "value": "able to some extent acetylate"}
    ]},
    {"compound": "SARS-CoV-2 E^53−72: longer non-acetylated peptide, aa 53–72 of SARS-CoV-2 E (KPSFYVYSRVKNLNSSRVPD)", "values": [
      {"measurement": "Chemical shift perturbations in BRD4 ET upon peptide addition", "setting": "BRD4 ET domain", "value": "did not alter the pattern of CSPs"}
    ]},
    {"compound": "SARS-CoV-2 E^57−69: peptide, aa 57–69 of SARS-CoV-2 E (YVYSRVKNLNSSR)", "values": [
      {"measurement": "Chemical shift perturbations in BRD4 ET upon peptide addition", "setting": "BRD4 ET domain", "value": "small CSPs"}
    ]}
  ]
}
